These results are taken from patent publication US8709764B2, “Enzymatic demethylation of flavonoids” (Universiteit Gent, priority 2005, dated 2014).

Data set [1] addresses T1, human estrogen receptor (ERα) (Homo sapiens, UniProt P03372).
T1 construct: expressed in transfected cells; host or cells: Saccharomyces cerevisiae
T1 sequence (P03372 1-595): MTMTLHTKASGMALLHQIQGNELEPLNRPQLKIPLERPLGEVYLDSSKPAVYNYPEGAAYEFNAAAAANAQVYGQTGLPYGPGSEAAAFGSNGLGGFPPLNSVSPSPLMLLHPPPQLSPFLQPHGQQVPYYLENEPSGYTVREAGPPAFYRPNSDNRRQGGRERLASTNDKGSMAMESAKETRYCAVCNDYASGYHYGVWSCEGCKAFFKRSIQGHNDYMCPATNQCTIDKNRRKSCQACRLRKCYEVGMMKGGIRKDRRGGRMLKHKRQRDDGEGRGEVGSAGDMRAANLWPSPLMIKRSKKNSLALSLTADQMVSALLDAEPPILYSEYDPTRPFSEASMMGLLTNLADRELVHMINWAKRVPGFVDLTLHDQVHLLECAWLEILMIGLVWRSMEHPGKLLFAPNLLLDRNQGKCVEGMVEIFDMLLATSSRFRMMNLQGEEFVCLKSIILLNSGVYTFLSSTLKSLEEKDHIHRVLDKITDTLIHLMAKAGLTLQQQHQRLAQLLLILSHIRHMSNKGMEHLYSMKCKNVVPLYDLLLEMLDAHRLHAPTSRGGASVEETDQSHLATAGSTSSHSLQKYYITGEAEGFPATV
As to the kind of experiment: Yeast Estrogenic Screen of extracts of fecal culture incubations with IX. In kind it is cell-based. As for the experimental part:
The capacity of the cultures obtained from fecal samples A, B, C and D (further referred as cultures A-D) to degrade or transform the hop prenylflavonoid IX was tested by incubating the fecal cultures (10% (v/v)) in Brain Heart Infusion broth (with 0.5 g/l cystein-HCl) with 25 mg/l of isoxanthohumol for a period of 8 days under anaerobic conditions. Extracts of the incubations at days 0 and 8 were assayed for bioactive transformation products of IX using a Yeast Estrogenic Screen, according to De Boever et al. (2001) Env. Health Perspectives 109, 691-697, based on Routledge & Sumpter (1996) Environ. Toxicol. Chem. 15, 241-248. In brief, Saccharomyces cerevisiae, was transformed with the human estrogen receptor (ERα) gene, together with expression plasmids containing responsive elements and the lacZ reporter gene (encoding the enzyme β-galactosidase). β-galactosidase activity is quantified at 540 nm by the conversion of the chromogenic substance chlorophenol red-β-D-galactopyranoside into chlorophenol red. The bioassay response is expressed as the absorbance at 540 nm divided by the optical density at 630 nm [(A540/A630)net]. The estrogenic activity of the samples was expressed as percentage equivalence to 10 nM estradiol (E2) which elicited a 100% response in the estrogen receptor bioassay. […]

The nature of data set [2]: Urinary IX and 8-PN excretion in axenic and Human Flora Associated (HFA) rats. In kind it is in vivo, rat. The settings on record: 2 mg IX/kg body weight daily. As for the experimental part:
An experiment with axenic and Human Flora Associated (HFA) rats was performed to test the capacity of the selected strain of example 2 to activate methylated prenylflavonoids in vivo. A total of 12 axenic rats were used for the study. When the rats were 5 weeks old, 3 HFA rats were associated by oral gavage with a freshly voided, homogenized fecal culture which has prenylflavonoid demethylating activity. These HFA rats were designated PF+ rats.
At the same time, 3 HFA rats were associated by oral gavage with a freshly voided, homogenized fecal culture without prenylflavonoid demethylating activity. These HFA rats were designated PF− rats. The remaining rats were kept under sterile conditions. All rats were kept in separate, closed collective cages prior to the start of the experiment.
After 3 weeks of stabilization of the microbial cultures inside the rat intestine, a first experiment was started. After moving the rats to individual metabolism cages, 2 mg IX/kg body weight was daily administered to each rat for 5 days and each day 24 h-pooled urine was collected. After 3 days, the urinary IX and 8-PN excretion was quantified. […]
Herein, the 6 axenic rats were associated with the selected E. limosum strain of example 2 for 7 days by daily oral gavage with a log 9 bacterial suspension. […] On day 7, the urinary IX and 8-PN excretion was quantified.

In another data set the test system is human fecal cultures. As to the kind of experiment: Incubation of IX with human fecal cultures (E-L; 51 fecal samples) for 3 days. In kind it is in vitro ADME. Here is the method: Fecal slurries of 20% (w/v) fresh fecal samples were prepared by homogenizing the feces with phosphate buffered saline (0.1 M, pH 7) containing 1 g/l sodiumthioglycolate as reducing agent. The particulate material was removed by centrifugation (1 min, 500×g). The supernatant is hereafter called “the culture”.
But not all cultures were able to perform this reaction. Therefore, the remaining cultures E-L (10% (v/v)) were incubated for 3 days in Brain Heart Infusion broth (with 0.5 g/l cystein-HCl) under anaerobic conditions with 25 mg/l IX (FIG. 4).
To further investigate these inter-individual differences, a total of 51 fecal samples were incubated for 3 days in Brain Heart Infusion broth (with 0.5 g/l cystein-HCl) under anaerobic conditions, containing 25 mg/l IX (FIG. 5). The results are presented as % 8-PN production relative to the incubated IX concentration and samples were ordered by increasing 8-PN production capacity.

Turning to `COc1cc(O)c(CC=C(C)C)c2c1C(=O)C[C@@H](c1ccc(O)cc1)O2` [IX, 5-O-methyl-8-prenylnaringenin], the “Estrogenic response of incubation extracts” value in data set [1] (fecal culture C incubated with 25 mg/l IX, after 8 days) is given as “strong increase in the estrogenic properties”; in data set [1] (fecal cultures A-D incubated with 25 mg/l IX, day 0), “None of the incubations showed an estrogenic response”. The results for the “24 h-pooled urinary % 8-PN/(IX + 8-PN) excretion, Mean (Stdev)” value in data set [2] (PF+ HFA rats) and in data set [2] (PF− HFA rats) were 55.3 (9.1) % and 23.6 (10.4) %, respectively. In the data set on human fecal cultures (fecal cultures E-L, 25 mg/l IX, 3 days anaerobic), the “Microbial O-demethylation of IX” value is “only detected in samples E, J and K”. Further, in the data set on human fecal cultures (fecal samples A-L), the “Share of tested fecal samples in which activation of IX occurred” value is recorded as “only a third of the tested samples”.
